Like-named read-outs stand apart in the source and are kept apart here. Blank lines part the entries; values can stand above or below the compound they belong to.
Target: T1, Androgen Receptor (Homo sapiens, UniProt P10275)
T1 construct: endogenous in cells; host or cells: VCaP cells
T1 sequence (P10275 1-920): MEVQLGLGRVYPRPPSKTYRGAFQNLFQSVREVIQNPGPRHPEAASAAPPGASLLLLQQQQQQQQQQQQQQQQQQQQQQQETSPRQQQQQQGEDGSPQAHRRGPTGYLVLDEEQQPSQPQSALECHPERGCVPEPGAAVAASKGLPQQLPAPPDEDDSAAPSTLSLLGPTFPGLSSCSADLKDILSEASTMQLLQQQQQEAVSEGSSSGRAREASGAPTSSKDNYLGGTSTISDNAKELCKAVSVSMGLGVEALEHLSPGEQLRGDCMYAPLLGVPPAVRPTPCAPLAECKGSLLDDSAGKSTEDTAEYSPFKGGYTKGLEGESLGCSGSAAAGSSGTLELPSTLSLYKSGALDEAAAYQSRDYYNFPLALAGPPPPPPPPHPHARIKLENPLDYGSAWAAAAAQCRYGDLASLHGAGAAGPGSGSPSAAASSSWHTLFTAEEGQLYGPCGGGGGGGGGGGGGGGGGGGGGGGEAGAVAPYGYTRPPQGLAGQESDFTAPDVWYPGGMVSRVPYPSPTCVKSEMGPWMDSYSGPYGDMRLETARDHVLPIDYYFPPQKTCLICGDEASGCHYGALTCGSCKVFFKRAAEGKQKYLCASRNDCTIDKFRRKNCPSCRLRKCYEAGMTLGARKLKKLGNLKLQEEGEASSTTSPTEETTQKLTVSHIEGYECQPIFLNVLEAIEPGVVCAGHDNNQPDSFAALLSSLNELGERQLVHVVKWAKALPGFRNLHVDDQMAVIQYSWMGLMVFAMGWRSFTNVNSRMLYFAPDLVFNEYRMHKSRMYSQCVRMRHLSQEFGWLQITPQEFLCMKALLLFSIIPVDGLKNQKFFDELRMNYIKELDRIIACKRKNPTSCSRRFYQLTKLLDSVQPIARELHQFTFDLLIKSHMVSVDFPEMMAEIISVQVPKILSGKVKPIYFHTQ
Assay: Androgen Receptor ELISA assay (PathScan AR ELISA) in VCaP cells: AR degradation, Dmax and DC50
Format: cell-based
In short: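 VCaP cells, 30,000/well, grown ≥3 days in phenol red-free RPMI with 5% charcoal-stripped FBS; compound added in 0.1% DMSO with 0.1 nM R1881, 7 half-log doses, 24 h. Lysate AR quantified by PathScan sandwich ELISA, HRP/TMB read at 450 nm, giving DC50 and Dmax.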

[1] = VCaP cells; Table 36; read-out: VCaP DC50
[2] = VCaP, highest percentage of Androgen Receptor degradation observed, VCaP cells (Table 32); read-out: VCaP Dmax (%)
[3] = concentration that caused 50% Androgen Receptor degradation, VCaP cells (Table 32); read-out: VCaP DC50
[4] = VCaP, VCaP cells; Table 36; read-out: VCaP Dmax (%)
[5] = read-out: VCaP DC50; concentration that caused 50% Androgen Receptor degradation, VCaP cells (Table 32)

Compound: CC(=O)O[C@@H]1C[C@@H](C(=O)N[C@@H](C)c2ccc(-c3scnc3C)cc2)N(C(=O)[C@H](C(C)C)N2Cc3ccc(OCCN4CCN(c5ccc(C(=O)N[C@H]6C(C)(C)[C@H](Oc7ccc(C#N)c(Cl)c7)C6(C)C)cn5)CC4)cc3C2=O)C1 [Example 857, (3R,5S)-1-((S)-2-(6-(2-(4-(5-(((1r,3r)-3-(3-chloro-4-cyanophenoxy)-2,2,4,4-tetramethylcyclobutyl)carbamoyl)pyridin-2-yl)piperazin-1-yl)ethoxy)-1-oxoisoindolin-2-yl)-3-methylbutanoyl)-5-(((S)-1-(4-(4-methylthiazol-5-yl)phenyl)ethyl)carbamoyl)pyrrolidin-3-yl acetate]
DC50 [1]: > 501 nM | Dmax (VCaP, read-out: VCaP Dmax (%)): < 25%

Compound: CC(C)(C)[C@H](NC(=O)COCCCCOc1ccc(-c2ccc(N3C(=S)N(c4cnc(C#N)c(Cl)c4)C(=O)C3(C)C)cc2)cc1)C(=O)N1C[C@H](O)C[C@H]1C(=O)NCc1ccc(-c2cnco2)cc1 [Example 191, (2S,4R)-1-[(2S)-2-{2-[4-(4-{4-[3-(5-chloro-6-cyanopyridin-3-yl)-5,5-dimethyl-4-oxo-2-sulfanylideneimidazolidin-1-yl]phenyl}phenoxy)butoxy]acetamido}-3,3-dimethylbutanoyl]-4-hydroxy-N-{[4-(1,3-oxazol-5-yl)phenyl]methyl}pyrrolidine-2-carboxamide]
DC50 (VCaP cells; concentration that caused 50% Androgen Receptor degradation; read-out: VCaP DC50): < 50 nM | Dmax (VCaP, VCaP cells; highest percentage of Androgen Receptor degradation; read-out: VCaP Dmax (%)): 51 to 70%

Dmax [2]: > 71% | DC50 [3]: < 50 nM
Compound: CC(C)(C)[C@H](NC(=O)COCCCCCOc1ccc(C(=O)N[C@H]2C(C)(C)[C@H](Oc3ccc(C#N)c(Cl)c3)C2(C)C)cc1)C(=O)N1C[C@H](O)C[C@H]1C(=O)NCc1ccc(-c2cnco2)cc1 [Example 153, (2S,4R)-1-[(2S)-3,3-dimethyl-2-(2-{[5-(4-{[trans-3-(3-chloro-4-cyanophenoxy)-2,2,4,4-tetramethylcyclobutyl]carbamoyl}phen-oxy)pentyl]oxy}acetamido)butanoyl]-4-hydroxy-N-{[4-(1,3-oxazol-5-yl)phenyl]methyl}pyrrolidine-2-carboxamide]

Dmax [2]: > 71% | DC50 [3]: < 50 nM
Compound: Cc1ncsc1-c1ccc(CNC(=O)[C@@H]2C[C@@H](O)CN2C(=O)[C@@H](NC(=O)COCCCCCOc2ccc(C(=O)N[C@H]3C(C)(C)[C@H](Oc4ccc(C#N)c(C(F)(F)F)c4)C3(C)C)cc2)C(C)(C)C)cc1 [Example 155, (2S,4R)-1-[(2S)-3,3-dimethyl-2-(2-{[5-(4-{[trans-3-[4-cyano-3-(trifluoromethyl)phenoxy]-2,2,4,4-tetramethylcyclobutyl]carbamoyl}phen-oxy)pentyl]oxy}acetamido)butanoyl]-4-hydroxy-N-{[4-(4-methyl-1,3-thiazol-5-yl)phenyl]methyl}pyrrolidine-2-carboxamide]

Compound: Cc1ncsc1-c1ccc([C@H](C)NC(=O)[C@@H]2C[C@@H](O)CN2C(=O)[C@@H](NC(=O)CN2C3CCC2CN(CCCc2ccc(C(=O)N[C@H]4C(C)(C)[C@H](Oc5ccc(C#N)c(Cl)c5)C4(C)C)cn2)C3)C(C)(C)C)cc1 [Example 839, N-((1r,3r)-3-(3-chloro-4-cyanophenoxy)-2,2,4,4-tetramethylcyclobutyl)-6-(3-(8-(2-(((S)-1-((2S, 4R)-4-hydroxy-2-(((S)-1-(4-(4-methylthiazol-5-yl)phenyl)ethyl)carbamoyl)pyrrolidin-1-yl)-3,3-dimethyl-1-oxobutan-2-yl)amino)-2-oxoethyl)-3,8-diazabicyclo[3.2.1]octan-3-yl)propyl) nicotinamide]
Dmax (VCaP, read-out: VCaP Dmax (%)): 51 to 70% | DC50 (read-out: VCaP DC50; VCaP cells; Table 36): < 50 nM

DC50 [1]: < 50 nM | Dmax [4]: 26 to 50%
Compound: Cc1ncsc1-c1ccc([C@H](C)NC(=O)[C@@H]2C[C@@H](O)CN2C(=O)C(NC(=O)CCCCCc2ccc(C(=O)N[C@H]3C(C)(C)[C@H](Oc4ccc(C#N)c(Cl)c4)C3(C)C)cc2)C(C)(C)C)cc1 (stereo partly drawn) [Example 748, (2S,4R)-1-((S)-2-(6-(4-(((1r,3r)-3-(3-chloro-4-cyanophenoxy)-2,2,4,4-tetramethylcyclobutyl)carbamoyl)phenyl)hexan-amido)-3,3-dimethylbutanoyl)-4-hydroxy-N-((S)-1-(4-(4-methylthiazol-5-yl)phenyl)ethyl)pyrrolidine-2-carboxamide]

DC50 [1]: > 501 nM | Dmax [4]: < 25%
Compound: Cc1ncsc1-c1ccc([C@H](C)NC(=O)[C@@H]2CC(O)CN2C(=O)[C@H](C(C)C)n2nccc2OCCCCCNc2ccc(C(=O)N[C@H]3C(C)(C)[C@H](Oc4ccc(C#N)c(Cl)c4)C3(C)C)cc2)cc1 (stereo partly drawn) [Example 624, (2S,4R)-1-((S)-2-(5-((5-((4-(((1r,3r)-3-(3-chloro-4-cyanophenoxy)-2,2,4,4-tetramethylcyclobutyl)carbamoyl)phenyl)amino)pentyl)oxy)-1H-pyrazol-1-yl)-3-methylbutanoyl)-4-hydroxy-N-((S)-1-(4-(4-methylthiazol-5-yl)phenyl)ethyl)pyrrolidine-2-carboxamide]

DC50 [1]: > 501 nM
Compound: Cc1ncsc1-c1ccc([C@H](C)NC(=O)[C@@H]2C[C@@H](O)CN2C(=O)[C@@H](NC(=O)COCCN(C)CCCc2ccc(C(=O)N[C@H]3C(C)(C)[C@H](Oc4ccc(C#N)c(Cl)c4)C3(C)C)nc2)C(C)(C)C)cc1 [Example 678, N-((1r,3r)-3-(3-chloro-4-cyanophenoxy)-2,2,4,4-tetramethylcyclobutyl)-5-(3-((2-(2-(((S)-1-((2S,4R)-4-hydroxy-2-(((S)-1-(4-(4-methylthiazol-5-yl)phenyl)ethyl)carbam-oyl)pyrrolidin-1-yl)-3,3-dimethyl-1-oxobutan-2-yl)amino)-2-oxoethoxy)ethyl)(meth-yl)amino)propyl)picolin-amide]

DC50 (VCaP cells; Table 35; read-out: VCaP DC50): < 50 nM | Dmax (VCaP, VCaP cells; Table 35; read-out: VCaP Dmax (%)): 26 to 50%
Compound: CC(C)(C)[C@H](NC(=O)CNCCNc1ccc(-c2ccc(C(=O)N[C@H]3C(C)(C)[C@H](Oc4ccc(C#N)c(Cl)c4)C3(C)C)cc2)cn1)C(=O)N1C[C@H](O)C[C@H]1C(=O)NCc1ccc(C#N)cc1 [Example 500]

Compound: Cc1ncsc1-c1ccc(CNC(=O)[C@@H]2C[C@@H](O)CN2C(=O)[C@@H](NC(=O)COCCCCOc2ccc(-c3ccc(N4C(=S)N(c5ccc(C#N)c(Cl)c5)C(=O)C4(C)C)c(F)c3)cc2)C(C)(C)C)cc1 [Example 107, (2S,4R)-1-[(2S)-2-{2-[4-(4-{4-[3-(3-chloro-4-cyanophenyl)-5,5-dimethyl-4-oxo-2-sulfanylideneimidazolidin-1-yl]-3-fluorophenyl}phen-oxy)butoxy]acetamido}-3,3-dimethylbutanoyl]-4-hydroxy-N-{[4-(4-methyl-1,3-thiazol-5-yl)phenyl]methyl}pyrrolidine-2-carboxamide]
Dmax (VCaP, read-out: VCaP Dmax (%)): > 71% | DC50 [5]: < 50 nM

Compound: Cc1ncsc1-c1ccc(CNC(=O)[C@H]2C[C@@H](O)CN2C(=O)[C@@H](NC(=O)[C@@H](C)Oc2ccc(OCCOc3ccc(N4C(=S)N(c5ccc(C#N)c(C(F)(F)F)c5)C(=O)C4(C)C)cc3)cc2)C(C)(C)C)cc1 [Example 381]
Dmax (VCaP, read-out: VCaP Dmax (%)): 26 to 50% | DC50 (read-out: VCaP DC50; VCaP cells; Table 34): < 50 nM

Compound: Cc1ncsc1-c1ccc([C@H](C)NC(=O)[C@@H]2C[C@@H](O)CN2C(=O)[C@@H](C(C)C)n2cc(Oc3cccc(OCCCCCOc4ccc(N5C(=S)N(c6ccc(C#N)c(C(F)(F)F)c6)C(=O)C5(C)C)cc4)c3)cn2)nc1 [Example 424]
Dmax (VCaP, read-out: VCaP Dmax (%)): < 25% | DC50 (read-out: VCaP DC50; VCaP cells; Table 35): > 501 nM

Compound: Cc1ncsc1-c1ccc(CNC(=O)[C@@H]2C[C@@H](O)CN2C(=O)[C@@H](NC(=O)COCCCCOc2ccc(-c3ccc(N4C(=S)N(c5ccc(C#N)c(C(F)(F)F)c5)C(=O)C4(C)C)cn3)cc2)C(C)(C)C)cc1 [Example 102, (2S,4R)-1-[(2S)-2-(2-{4-[4-(5-{3-[4-cyano-3-(trifluoromethyl)phenyl]-5,5-dimethyl-4-oxo-2-sulfanylideneimidazolidin-1-yl}pyridin-2-yl)phenoxy]butoxy}acetamido)-3,3-dimethylbutanoyl]-4-hydroxy-N-{[4-(4-methyl-1,3-thiazol-5-yl)phenyl]methyl}pyrrolidine-2-carboxamide]
Dmax (VCaP, read-out: VCaP Dmax (%)): > 71% | DC50 [5]: < 50 nM

Reference: patent US11427548B2 (Arvinas Operations, Inc., priority 2015, dated 2022)
